{"source": "patent US20240254489A1", "about": "“COMPOSITIONS AND METHODS OF TARGETING THE PAX6 SIGNALING PATHWAY TO REDUCE FORMATION OF AMYLOID BETA PLAQUES AND NEUROFIBRILLARY TANGLES” (The University of Hong Kong, priority 2021, published 2024)", "key": {"[1]": {"test_system": "C/EBPa", "settings": "cited from earlier work"}, "[2]": {"test_system": "5×FAD mice", "test": "Morris water maze of palbociclib-treated 5×FAD mice", "assay_type": "in vivo, mouse", "description": "(§1) FIG. 9A-9D show effects of palbociclib on 5×FAD mice model. FIGS. 9A and 9B is a series of immunofluorescent images showing expression of cell cycle marker (Cyclin D1) (9A) and Pax6 (9B). […] FIG. 9D is an image of an autoradiogram of a Western blot and the associated quantitative bar graph showing the relative expression of E2F-1, CDK6, c-Myb, APP, Iba1 and LC3B in palbociclib treatment group compared to controls. FIG. 9E is a series of images of brain tissue showing the relative Aβ deposits in palbociclib treated mouse brain tissue compared to controls. FIG. 9F is a series of images of liver, gallbladder and kidney in palbociclib treated mouse. FIGS. 9G-9J show the effect of palbociclib treatment on learning and memory ability of 5×FAD female mice in morris water maze. FIG. 9G is a schematic diagram of palbociclib administration with 60 mg/(kg*d); 10-month-old wild-type mice (WT) and 5×FAD mice were administrated with solvent (ctrl) and 60 mg/kg/day palbociclib (palb) for 2 months via oral garage; Morris water maze with n(WT-ctrl)=5, n(5×FAD-ctrl)=5, n(5×FAD-palb)=3 were performed.\nFIGS. 9G-9J show the effect of palbociclib treatment on learning and memory ability of 5×FAD female mice in morris water maze. FIG. 9G is a schematic diagram of palbociclib administration with 60 mg/(kg*d); 10-month-old wild-type mice (WT) and 5×FAD mice were administrated with solvent (ctrl) and 60 mg/kg/day palbociclib (palb) for 2 months via oral garage; Morris water maze with n(WT-ctrl)=5, n(5×FAD-ctrl)=5, n(5×FAD-palb)=3 were performed."}, "[3]": {"test_system": "5×FAD mice", "test": "Immunofluorescence, Western blot and Aβ deposits in brain of palbociclib-treated 5×FAD mice", "assay_type": "in vivo, mouse", "description": "as §1\nFIGS. 8A-8E show the effects of palbociclib on 5×FAD mice models.\nFIGS. 9A-9D show effects of palbociclib on 5×FAD mice model. FIGS. 9A and 9B is a series of immunofluorescent images showing expression of cell cycle marker (Cyclin D1) (9A) and Pax6 (9B). […] FIG. 9D is an image of an autoradiogram of a Western blot and the associated quantitative bar graph showing the relative expression of E2F-1, CDK6, c-Myb, APP, Iba1 and LC3B in palbociclib treatment group compared to controls. FIG. 9E is a series of images of brain tissue showing the relative […] deposits in palbociclib treated mouse brain tissue compared to controls."}, "[4]": {"test": "Images of liver, gallbladder and kidney in palbociclib treated mouse", "assay_type": "in vivo", "description": "as §1\nFIGS. 9A-9D show effects of palbociclib on 5×FAD mice model. […] FIG. 9D is an image of an autoradiogram of a Western blot and the associated quantitative bar graph showing the relative expression of E2F-1, CDK6, c-Myb, APP, Iba1 and LC3B in palbociclib treatment group compared to controls. […]"}, "[5]": {"test_system": "293T-Tau cell line", "test": "Western blot of CDK4 and Cyclin D1 in 293T-Tau cell line", "assay_type": "cell-based", "settings": "10 nM and 50 nM", "description": "(§2) Experiments were designed to test the effect of palbociclib on Tau in vitro and in vivo."}, "[6]": {"test_system": "293T-APP cell line", "test": "Western blot of CDK4 and Cyclin D1 in 293T-APP cell line", "assay_type": "cell-based", "settings": "10 nM and 50 nM", "description": "as §2"}, "[7]": {"test_system": "cdks 1, 2, 4 and 7", "settings": "in vitro; cited from earlier work"}, "[8]": {"test_system": "cortical neurons", "test": "Neuronal survival assay of amyloid β neurotoxicity", "assay_type": "cell-based, mouse", "settings": "co-treatment with amyloid β", "quoted_text": "The survival assay of amyloid β neurotoxicity was performed as reported previously^33. At various time periods, neurons were lysed in a cell lysis buffer. Under light microscopy, the numbers of intact nuclei indicating living cells was quantified and expressed relative to the number of cells in the control group without amyloid β treatment.\nThe brains were dissociated from skulls, meninges removed and cortices isolated. Individual cells were dissociated by incubation with trypsin and DNase (Sigma). Cells were plated on poly-d-lysine (Sigma)-coated 24-well plates at a density of 1.5×10^6 cells/ml in Neurobasal medium (Thermo Fisher Scientific) supplemented with B-27 (Thermo Fisher Scientific), N-2 (Thermo Fisher Scientific), and glutamine (0.5 mM, Thermo Fisher Scientific). Three days after seeding, cultured cells were transfected with siRNAs (60 pmol/24-well) using Lipofactamine 2000 transfection reagent (Thermo Fisher Scientific). Twenty-four hours after transfection, cells were exposed to amyloid β1-42 (5 μM) for the indicated time periods and then processed for subsequent assays. SiRNAs from Santa Cruz are provided as pools consisting of three to five target-specific 19-25 nucleotides siRNAs designed to specifically knockdown the expression of mouse Pax6, c-Myb or E2F1. Silencer Select Pre-designed siRNAs were from Ambion, non-targeting siRNA was used as a negative control. […]"}, "[9]": {"test_system": "Pax6 promoter", "test": "Pax6 promoter luciferase reporter assay in amyloid β-treated cortical neurons", "assay_type": "cell-based, mouse", "settings": "co-treatment with amyloid β", "procedure": "Cortical neurons were transfected with luciferase reporter constructs three days after plating. After amyloid β treatment, luciferase activity of a target gene was determined using the dual-luciferase reporter assay system (Promega) in a microplate luminometer. Luciferase activity was normalised against Renilla activity for the transfection efficiency using a pRL Renilla luciferase control reporter construct. Next, experiments were designed to investigate whether the upregulation of Pax6 and c-Myb is associated with an increase in transcriptional activation of their targets. Cortical neurons were transfected with a P6CON luciferase reporter construct, which contained three standard Pax6 binding sites^39 to measure Pax6 binding; a luciferase construct containing the Pax6 P1 promoter^40 to measure Pax6 promoter activation; or with a luciferase construct containing c-Myb binding sites to measure c-Myb binding. The same luciferase assays were then performed after amyloid β treatment."}, "[10]": {"test_system": "Pax6 and c-Myb", "test": "RT-PCR and Western blot of amyloid β-induced Pax6 and c-Myb in cortical neurons", "assay_type": "cell-based, mouse", "procedure": "Human brain tissues or mouse cortical neurons were dissolved in ice-cold 1×RIPA buffer (Cell Signaling) with proteinase inhibitor cocktail (Sigma). Proteins were separated on NuPAGE Novex 4-12% Bis-Tris gels (Thermo Fisher Scientific) and transferred to nitrocellulose membranes. Membranes were probed with indicated primary antibodies. The blots were analysed and quantified by densitometry using ImageJ software (Version 1.52t, National Institutes of Health).\nTotal mRNA was prepared from cell cultures utilizing TRIzol reagent (Thermo Fisher Scientific). Semi-quantitative RT-PCR experiments were performed to examine RNA expression of target genes. Briefly, 2 μg of total RNA was reverse-transcribed using SuperScript First-Strand Synthesis System (Thermo Fisher Scientific). The first-strand cDNA was used as a template. β-actin was used as the normalisation control.\nPrimary cortical neurons were derived from embryonic day 14.5 (E14.5) C57BL/6 mice^31. The brains were dissociated from skulls, meninges removed and cortices isolated. Individual cells were dissociated by incubation with trypsin and DNase (Sigma). Cells were plated on poly-d-lysine (Sigma)-coated 24-well plates at a density of 1.5×10^6 cells/ml in Neurobasal medium (Thermo Fisher Scientific) supplemented with B-27 (Thermo Fisher Scientific), N-2 (Thermo Fisher Scientific), and glutamine (0.5 mM, Thermo Fisher Scientific). […]"}, "[11]": {"settings": "5×FAD female mice, 60 mg/kg/day oral 2 months"}}}
{"smiles": "COc1ccccc1-n1c(/C=C/c2ccc(O)c(O)c2)nc2ccccc2c1=O", "note": "[ICCB280]", "values": [{"measurement": "induction of C/EBPa", "setting": "[1]", "value": "potent inducer"}]}
{"smiles": "CC(=O)c1c(C)c2cnc(Nc3ccc(N4CCNCC4)cn3)nc2n(C2CCCC2)c1=O", "note": "[palbociclib]", "values": [{"measurement": "frequency of crossing platform in probe trial", "setting": "[2]; [11]", "value": "significantly increased"}, {"measurement": "latency to platform in probe trial", "setting": "[2]; [11]", "value": "significantly improved to the level of the wild type control"}, {"measurement": "memory and learning of 5×FAD mice", "setting": "[2]; mouse, in vivo", "value": "able to improve memory and learning"}, {"measurement": "Aβ deposit in brain tissue", "setting": "[3]", "value": "relative fewer"}, {"measurement": "expression of Pax6", "setting": "[3]", "value": "decreased expression"}, {"measurement": "expression of cell cycle marker (Cyclin D1)", "setting": "[3]", "value": "increased expression"}, {"measurement": "expression of E2F-1", "setting": "[3]; treatment group compared to controls", "value": "relative decreased expression"}, {"measurement": "side effect (liver, gallbladder and kidney images)", "setting": "[4]", "value": "no side effect"}, {"measurement": "expression levels of CDK4 and Cyclin D1", "setting": "[5]", "value": "decreased"}, {"measurement": "expression levels of CDK4 and Cyclin D1", "setting": "[6]", "value": "Decreased"}]}
{"smiles": "CN1CC[C@H](c2c(O)cc(O)c3c(=O)cc(-c4ccccc4Cl)oc23)[C@H](O)C1", "note": "[flavopiridol]", "values": [{"measurement": "inhibition of all cdks tested (cdks 1, 2, 4 and 7)", "setting": "[7]", "value": "potent and specific in vitro inhibition"}, {"measurement": "amyloid β-induced death of cortical neurons", "setting": "[8]", "value": "protected cortical neurons against amyloid β-induced death"}, {"measurement": "amyloid β-induced activation of the Pax6 promoter", "setting": "[9]", "value": "blocked"}, {"measurement": "amyloid β-induced upregulation of Pax6 and c-Myb mRNA and protein", "setting": "[10]", "value": "significantly blocked"}]}
